Assay results reported in patent US11472815B2, “1,4-diphenyl-1H-imidazole and 2,4-diphenylthiazole derivatives and preparation method therefor and use thereof” (SOUTHERN MEDICAL UNIVERSITY, priority 2018, dated 2022).

Target: TLR1/2 (Homo sapiens (Human), UniProt O60603+Q15399)
Assay: Detection of TLR1/2 activation activity (SEAP signal) using TLR1/2 HEK BLUE cells
Assay type: cell-based
Settings: for EC50 / TLR1/2 activation activity EC50: HEK BLUE TLR1/2 cells, 24 hours, SEAP read at 620 nm, highest concentration 100 μM, [‡] highest SEAP signal less than 50% of the activation value of compound 22
Protocol: TLR1/2 activation activity was detected using TLR1/2 HEK BLUE cells. TLR1/2 HEK BLUE cells were cultured in DMEM medium containing 10% fetal bovine serum, 1% penicillin and streptomycin, and incubated in a 37° C. cell incubator containing 5% CO2.
HEK BLUE TLR1/2 cells were spread in a 384-well plate at 20,000 cells/well, cultured at 37° C., 5% CO2 for 24 hours, 25 μL per well. When the cells grew well, 100 μM compound and doubling-diluted for 11 concentration gradients. After the cells were kept for 24 hours in the CO2 incubator, 40 μL of indigo blue solution was added to each well of the plate in the dark, and reading was conducted 4 times in an interval of 15 minutes at 620 nm to detect the signal intensity of SEAP in the cell supernatant.

TLR1/2, sequence (Q15399 25-786): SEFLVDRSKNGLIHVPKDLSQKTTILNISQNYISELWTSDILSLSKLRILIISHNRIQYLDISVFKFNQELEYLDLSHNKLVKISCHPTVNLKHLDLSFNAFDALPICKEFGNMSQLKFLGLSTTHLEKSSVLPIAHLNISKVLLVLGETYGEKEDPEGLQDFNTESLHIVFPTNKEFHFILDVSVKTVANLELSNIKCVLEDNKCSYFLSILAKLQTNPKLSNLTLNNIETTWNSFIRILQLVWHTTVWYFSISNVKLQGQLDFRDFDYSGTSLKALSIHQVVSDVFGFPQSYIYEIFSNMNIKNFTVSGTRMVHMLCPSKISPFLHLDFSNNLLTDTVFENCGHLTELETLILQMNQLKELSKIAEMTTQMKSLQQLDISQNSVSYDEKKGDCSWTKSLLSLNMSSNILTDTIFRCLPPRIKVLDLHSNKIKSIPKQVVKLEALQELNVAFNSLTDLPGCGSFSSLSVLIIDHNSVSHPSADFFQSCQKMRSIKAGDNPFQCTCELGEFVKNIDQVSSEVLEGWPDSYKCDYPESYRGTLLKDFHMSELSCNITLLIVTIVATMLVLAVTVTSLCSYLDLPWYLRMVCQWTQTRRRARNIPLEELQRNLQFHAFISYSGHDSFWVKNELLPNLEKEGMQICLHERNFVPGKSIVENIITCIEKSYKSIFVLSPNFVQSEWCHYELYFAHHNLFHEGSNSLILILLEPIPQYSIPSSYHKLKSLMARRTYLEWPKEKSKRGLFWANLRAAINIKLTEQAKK
TLR1/2, sequence (O60603 19-784): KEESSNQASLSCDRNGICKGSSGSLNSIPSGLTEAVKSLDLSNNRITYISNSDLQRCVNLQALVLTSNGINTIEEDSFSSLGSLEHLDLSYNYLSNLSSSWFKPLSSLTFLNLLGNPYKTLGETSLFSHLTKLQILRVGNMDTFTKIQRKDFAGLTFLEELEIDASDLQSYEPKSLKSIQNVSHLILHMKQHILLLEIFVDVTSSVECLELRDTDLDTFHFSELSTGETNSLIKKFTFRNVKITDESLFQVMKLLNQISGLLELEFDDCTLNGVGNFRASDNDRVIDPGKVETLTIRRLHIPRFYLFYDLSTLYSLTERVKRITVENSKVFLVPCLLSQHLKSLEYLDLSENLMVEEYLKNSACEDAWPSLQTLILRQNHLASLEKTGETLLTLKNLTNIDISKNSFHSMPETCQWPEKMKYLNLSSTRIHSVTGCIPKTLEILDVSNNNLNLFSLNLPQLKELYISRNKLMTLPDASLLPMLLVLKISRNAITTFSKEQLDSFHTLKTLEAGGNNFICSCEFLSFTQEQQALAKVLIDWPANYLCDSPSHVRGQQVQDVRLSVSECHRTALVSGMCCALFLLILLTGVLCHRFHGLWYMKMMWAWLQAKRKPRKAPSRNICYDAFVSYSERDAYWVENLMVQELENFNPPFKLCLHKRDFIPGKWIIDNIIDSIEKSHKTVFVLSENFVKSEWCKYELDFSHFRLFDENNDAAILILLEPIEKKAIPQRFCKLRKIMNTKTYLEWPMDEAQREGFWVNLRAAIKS

| Structure (SMILES) | EC50 | other results |
| --- | --- | --- |
| CNc1ccc([N+](=O)[O-])cc1-n1cnc(-c2ccc(OC(F)(F)F)cc2O)c1 [Compound 21, 2-(1-(2-(methylamino)-5-nitrophenyl)-1H-imidazol-4-yl)-5-(trifluoromethoxy)phenol] | 24.9 ± 6.15 nM |  |
| CNc1ccc([N+](=O)[O-])cc1-n1cnc(-c2ccc(C(F)(F)F)cc2OCCOCCO)c1 [Compound 34, 2-(2-(2-(1-(2-(methylamino)-5-nitrophenyl)-1H-imidazol-4-yl)-5-(trifluoromethyl)phenoxy)ethoxy)ethanol] | > 1000 nM |  |
| FC(F)(F)c1ccc(-c2csc(-c3cccc(C(F)(F)F)c3)n2)cc1 [Compound 4, 2-(3-(trifluoromethyl)phenyl)-4-(4-(trifluoromethyl)phenyl)thiazole] | > 1000 nM |  |
| CNc1ccc(C(=O)OC)cc1-n1cnc(-c2ccc(C(F)(F)F)cc2O)c1 [Compound 24, Methyl 3-(4-(2-hydroxy-4-(trifluoromethyl)phenyl)-1H-imidazol-1-yl)-4-(methylamino)benzoate] | 432.86 ± 0.05 nM |  |
| CNc1c(Cl)cc([N+](=O)[O-])cc1-n1cnc(-c2ccc(C(F)(F)F)cc2O)c1 [Compound 26, 2-(1-(3-chloro-2-(methylamino)-5-nitrophenyl)-1H-imidazol-4-yl)-5-(trifluoromethyl)phenol] | 192 ± 17.2 nM |  |
| CNc1ccc([N+](=O)[O-])cc1-n1cnc(-c2ccc(C(F)(F)F)cc2O)c1 [Compound 22, 2-(1-(2-(methylamino)-5-nitrophenyl)-1H-imidazol-4-yl)-5-(trifluoromethyl)phenol] | 4.88 ± 0.79 nM | TLR1/2 activation (in words): activates TLR1/2 activity in a concentration-dependent manner; signal intensity of TLR1/2 alkaline phosphatase (SEAP) (even at a low concentration (15 nM)): significantly activate |
| CNc1ccc([N+](=O)[O-])cc1-n1cnc(-c2ccc(C(F)(F)F)cc2OC)c1 [Compound 28, 2-(4-(2-methoxy-4-(trifluoromethyl)phenyl)-1H-imidazol-1-yl)-N-methyl-4-nitroaniline] | 92.3 ± 12.3 nM |  |
| Oc1cc(C(F)(F)F)ccc1-c1csc(-c2cccc(C(F)(F)F)c2)n1 [Compound 14, 5-(trifluoromethyl)-2-(2-(3-(trifluoromethyl)phenyl)thiazol-4-yl)phenol] |  | TLR1/2 activation activity EC50: NA[†] |
| FC(F)(F)c1ccc(-c2csc(-c3cc(C(F)(F)F)cc(C(F)(F)F)c3)n2)cc1 [Compound 7, 2-(3,5-bis(trifluoromethyl)phenyl)-4-(4-(trifluoromethyl)phenyl)thiazole] |  | TLR1/2 activation activity EC50: NA[†] |
| CNC(=O)c1ccc(NC)c(-n2cnc(-c3ccc(C(F)(F)F)cc3O)c2)c1 [Compound 25, 3-(4-(2-hydroxy-4-(trifluoromethyl)phenyl)-1H-imidazol-1-yl)-N-methyl-4-(methylamino)benzamide] | 45.6 ± 3.15 nM |  |
| Oc1cc(C(F)(F)F)ccc1-c1csc(-c2ccccc2)n1 [Compound 13, 2-(2-phenylthiazol-4-yl)-5-(trifluoromethyl)phenol] |  | TLR1/2 activation activity EC50: NA[†] |
| Oc1cc(C(F)(F)F)ccc1-c1csc(-c2cc(C(F)(F)F)cc(C(F)(F)F)c2)n1 [Compound 17, 2-(2-(3,5-bis(trifluoromethyl)phenyl)thiazol-4-yl)-5-(trifluoromethyl)phenol] |  | TLR1/2 activation activity EC50: NA[†] |
| CNc1ccc([N+](=O)[O-])cc1-n1cnc(-c2ccc(C(F)(F)F)cc2OCCBr)c1 [Compound 31, 2-(4-(2-(2-bromoethoxy)-4-(trifluoromethyl)phenyl)-1H-imidazol-1-yl)-N-methyl-4-nitroaniline] | > 1000 nM |  |
| CNc1ccc([N+](=O)[O-])cc1-n1cnc(-c2ccc(C(F)(F)F)cc2OCc2ccccc2)c1 [Compound 30, 2-(4-(2-(benzyloxy)-4-(trifluoromethyl)phenyl)-1H-imidazol-1-yl)-N-methyl-4-nitroaniline] | > 1000 nM |  |
| CNc1c(Cl)cc([N+](=O)[O-])cc1-n1cnc(-c2ccc(C#N)cc2)c1 [Compound 27, 4-(1-(3-chloro-2-(methylamino)-5-nitrophenyl)-1H-imidazol-4-yl)benzonitrile] | > 1000 nM |  |
| CNc1ccc(S(C)(=O)=O)cc1-n1cnc(-c2ccc(C(F)(F)F)cc2O)c1 [Compound 23, 2-(1-(2-(methylamino)-5-(methylsulfonyl)phenyl)-1H-imidazol-4-yl)-5-(trifluoromethyl)phenol] | 5.14 ± 0.07 nM |  |
| CCOc1cc(C(F)(F)F)ccc1-c1cn(-c2cc([N+](=O)[O-])ccc2NC)cn1 [Compound 29, 2-(4-(2-ethoxy-4-(trifluoromethyl)phenyl)-1H-imidazol-1-yl)-N-methyl-4-nitroaniline] | > 1000 nM |  |
| FC(F)(F)c1ccc(-c2csc(-c3ccccc3)n2)cc1 [Compound 3, 2-phenyl-4-(4-(trifluoromethyl)phenyl)thiazole] | > 1000 nM |  |

Now from value to compound, other results behind:

| EC50 | Structure (SMILES) | other results |
| --- | --- | --- |
| > 1000 nM | CNc1ccc([N+](=O)[O-])cc1-n1cnc(-c2ccc(C(F)(F)F)cc2OCC(N)=O)c1 [Compound 42, (2-(1-(2-(methylamino)-5-nitrophenyl)-1H-imidazo-4-yl)-5-(trifluoromethyl)phenoxy)acetamide] |  |
| 764 ± 10.2 nM | CNc1ccc([N+](=O)[O-])cc1-n1cnc(-c2ccc(C(F)(F)F)cc2OCCNC(=O)CCCC[C@@H]2SC[C@@H]3NC(=O)N[C@@H]32)c1 [Compound 44, N-(2-(2-(1-(2-(methylamino)-5-nitrophenyl)-1H-imidazol-4-yl)-5-(trifluoromethyl)phenoxyl)ethyl)-5-((3AS,4S,6AR)-2-oxohexahydro-1H-thieno[3,4-d]imidazol-4-yl)pentanamide] |  |
| 56.3 ± 7.31 nM | CCCCCCCC(=O)Oc1cc(C(F)(F)F)ccc1-c1cn(-c2cc([N+](=O)[O-])ccc2NC)cn1 [Compound 36, 2-(1-(2-(methylamino)-5-nitrophenyl)-1H-imidazol-4-yl)-5-(trifluoromethyl)phenyl octanoate] |  |
| 16.9 ± 2.79 nM | CNc1ccc([N+](=O)[O-])cc1-n1cnc(-c2ccc(C(F)(F)F)cc2OC(=O)c2ccccc2)c1 [Compound 38, 2-(1-(2-(methylamino)-5-nitrophenyl)-1H-imidazol-4-yl)-5-(trifluoromethyl)phenyl benzoate] |  |
| 12 ± 2.67 nM | CNc1ccc([N+](=O)[O-])cc1-n1cnc(-c2ccc(C(F)(F)F)cc2OC(=O)/C=C/c2ccccc2)c1 [Compound 39, (1-(2-(methylamino)-5-nitrophenyl)-1H-imidazol-4-yl)-5-(trifluoromethyl)phenyl cinnamate] |  |
| > 1000 nM | CNc1ccc([N+](=O)[O-])cc1-n1cnc(-c2ccc(C(F)(F)F)cc2OCCOCCOCCI)c1 [Compound 41, 2-(4-(2-(2-(2-(2-iodoethoxy)ethoxy)ethoxy)-4-(trifluoromethyl)phenyl)-1H-imidazole-1-yl)-N-methyl-4-nitroaniline] |  |
| > 1000 nM | CNc1ccc([N+](=O)[O-])cc1-n1cnc(-c2ccc(C(F)(F)F)cc2OCCCBr)c1 [Compound 32, 2-(4-(2-(3-bromopropoxy)-4-(trifluoromethyl)phenyl)-1H-imidazol-1-yl)-N-methyl-4-nitroaniline] |  |
| 18.8 ± 3.65 nM | CNc1ccc([N+](=O)[O-])cc1-n1cnc(-c2ccc(C(F)(F)F)cc2OC(C)=O)c1 [Compound 35, (1-(2-(methylamino)-5-nitrophenyl)-1H-imidazol-4-yl)-5-(trifluoromethyl)phenyl acetate] |  |
| 113 ± 12.7 nM | CCCCCCCCCCCC(=O)Oc1cc(C(F)(F)F)ccc1-c1cn(-c2cc([N+](=O)[O-])ccc2NC)cn1 [Compound 37, 2-(1-(2-(methylamino)-5-nitrophenyl)-1H-imidazol-4-yl)-5-(trifluoromethyl)phenyl dodecanoate] |  |
